Values joined by “and” are separate entries in the source; they are usually repeats but may differ in a detail not shown here. Identical values can stand only once. Like-named read-outs stand apart in the source and are kept apart here.
What was measured:
Type in all cases: biochemical
[1] = molecular target: T1, PRDM9 (amino acids: 195–415) (Homo sapiens, UniProt Q9NQV7); test: PRDM9 methyltransferase activity assay (3H-SAM scintillation proximity assay); conditions: for activity at 100 µM: 100 µM compound
T1 construct: PRDM9 (amino acids: 195–415)
T1 sequence (Q9NQV7 195-415): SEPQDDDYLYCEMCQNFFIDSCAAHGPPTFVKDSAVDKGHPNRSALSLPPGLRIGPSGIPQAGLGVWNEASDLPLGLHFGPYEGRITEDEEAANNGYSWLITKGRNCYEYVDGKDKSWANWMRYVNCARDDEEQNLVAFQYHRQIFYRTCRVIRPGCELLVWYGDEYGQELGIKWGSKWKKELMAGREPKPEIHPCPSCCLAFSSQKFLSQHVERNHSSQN
Experimental: Methyltransferase activity assays for PRDM9 (amino acids: 195–415) were performed by monitoring the incorporation of tritium-labeled methyl group from ^3H-SAM to H3 (1–25) peptide using scintillation proximity assay (SPA). The enzymatic reactions were performed at 23 °C with 30 min incubation in 20 mM Tris-HCl (pH 7.5), 5 mM DTT, 0.01% Triton X-100 and 1% DMSO containing 71 μM of SAM (5 μM of ^3H-SAM), 4 μM of biotinylated H3 (1–25) peptide and 5 nM of PRDM9. For PRDM7, reactions were performed at 23 °C with 90 min incubation in 20 mM BTP pH 9.0, 5 mM DTT, 0.01% Triton X-100 and 1% DMSO containing 900 μM of SAM (5 μM of ^3H-SAM), 4 μM of biotinylated H3 (1–25) peptide and 100 nM of enzyme. […] To stop the reactions, 10 μL of 7.5 M guanidine hydrochloride was added to 10 μL of reaction mixture, followed by 60 μL of buffer (20 mM Tris, pH 8.0), mixed, and transferred to a 384-well streptavidin coated Flash-plate. After mixing, the mixtures in Flash-plate were incubated for 2 h, and the CPM counts were measured using TopCount plate reader. All enzymatic reactions were performed in triplicate, and IC50 values were determined by fitting the data to Four Parameter Logistic equation using the GraphPad Prism software.

[2] = molecular target: T2, SMYD3 (Homo sapiens, UniProt Q9H7B4); test: Methyltransferase selectivity assay (SPA)
T2 construct: purchased Structural Genomics Consortium (SGC Toronto) in-house methyltransferase panel
T2 sequence (Q9H7B4 1-428): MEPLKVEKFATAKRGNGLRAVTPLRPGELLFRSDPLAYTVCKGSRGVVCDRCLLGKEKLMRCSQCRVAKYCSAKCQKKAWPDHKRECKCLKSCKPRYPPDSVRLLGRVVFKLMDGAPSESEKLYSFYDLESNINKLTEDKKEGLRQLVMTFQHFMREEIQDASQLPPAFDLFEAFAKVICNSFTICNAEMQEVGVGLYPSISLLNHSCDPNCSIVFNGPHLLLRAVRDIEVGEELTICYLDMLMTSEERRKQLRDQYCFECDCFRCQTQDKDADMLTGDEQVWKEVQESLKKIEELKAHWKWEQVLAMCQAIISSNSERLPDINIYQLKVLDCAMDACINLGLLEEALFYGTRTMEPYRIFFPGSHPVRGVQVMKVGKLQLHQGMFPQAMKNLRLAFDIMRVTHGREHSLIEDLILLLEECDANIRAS
Experimental: (§1) Selectivity against methyltransferases were determined as described previously. Details of the assays are described in the supplementary methods.
(§2) Methyltransferase selectivity assay1
(§3) The effect of chemical probes and negative controls on the methyltransferase activities of protein, DNA and RNA methyltransferases was tested by radiometric assays using 3H-SAM. For proteins such as MLL1 trimeric, MLL3 pentameric, EZH1 (PRC2) pentameric, and EZH2 (PRC2) trimeric complexes, as well as G9a, GLP, SUV39H1, SUV39H2, SUV420H1, SUV420H2, SETD2, SETD8, SETDB1, SETD7, PRMT1, PRMT3, PRMT4, PRMT5/ MEP50 complex, PRMT6, PRMT7, PRMT8, PRMT9, PRDM9, SMYD2, SMYD3, DNMT1, and BCDIN3D the incorporation of a tritium-labeled methyl group into biotinylated substrate was monitored using scintillation proximity assay (SPA). Briefly, a 10 µL reaction containing 3H-SAM and substrate at concentrations close to the apparent Km values for each enzyme (balanced conditions) was prepared. The reactions were quenched with 10 µL of 7.5 M guanidine hydrochloride; 180 µL of 20 mM Tris buffer (pH 8.0) were added, and the mixture was transferred to a 96-well FlashPlate and incubated for 1 h. The counts per minute (CPM) was measured on a TopCount plate reader. The CPM in the absence of compound or enzyme was defined as 100% activity and background (0%), respectively, for each dataset. […]

[3] = molecular target: T3, MLL3 pentameric complex (Homo sapiens, UniProt Q8NEZ4); test: Methyltransferase selectivity assay (SPA)
T3 construct: purchased Structural Genomics Consortium (SGC Toronto) in-house methyltransferase panel
Experimental: as §1, §2, §3

[4] = 10µM compound, Exp1, Exp2, 10 µM

COc1cc(OC)cc(-c2noc(N3CCN(C)C4(CCN(c5ccccc5)CC4)C3)n2)c1 [MRK-740 -NC]
activity at 1 µM ([1]; PRDM9, 1µM compound, Exp1, Exp2): 97% | Activity % ([1]; PRDM9, 1µM compound, Exp1, Exp2, 1 µM): 90% | activity at 10 µM ([1]; PRDM9, 10µM compound, Exp1, Exp2): 96% | Activity % ([1]; PRDM9, 10µM compound, Exp1, Exp2, 10 µM): 93% | activity at 1 µM ([2]; 1µM compound, Exp1, Exp2): 100% | Activity % ([2]; 1µM compound, Exp1, Exp2, 1 µM): 102% | activity at 10 µM ([2]; 10µM compound, Exp1, Exp2): 96% | Activity % [2, 4]: 89% | activity at 1 µM ([3]; 1µM compound, Exp1, Exp2): 108% | Activity % ([3]; 1µM compound, Exp1, Exp2, 1 µM): 105% | activity at 10 µM ([3]; 10µM compound, Exp1, Exp2): 107% | Activity % [3, 4]: 95%

COc1cc(OC)cc(-c2noc(N3CCN(C)C4(CCN(c5ccccc5)CC4)C3)n2)c1 [MRK-740-NC]
PRDM9 inhibition (in words) [1]: inactive control compound | PRDM9-Activity %, single experiments ([1]; 0.00610352 µM compound, 0.00610352 µM): 111.779% and 111.39% | activity at 0.00610352 µM ([1]; 0.00610352 µM compound, n=6 MRK-740, n=3 MRK-740-NC, read-out: PRDM9-Activity %, Average): 110% | activity at 0.00610352 µM ([1]; 0.00610352 µM compound, read-out: PRDM9-Activity %, single experiments): 108% | PRDM9-Activity %, single experiments ([1]; 0.012207 µM compound, 0.012207 µM): 116.346% and 113.283% | activity at 0.012207 µM ([1]; 0.012207 µM compound, n=6 MRK-740, n=3 MRK-740-NC, read-out: PRDM9-Activity %, Average): 115% | activity at 0.012207 µM ([1]; 0.012207 µM compound, read-out: PRDM9-Activity %, single experiments): 116% | PRDM9-Activity %, single experiments ([1]; 0.0244141 µM compound, 0.0244141 µM): 104.873% and 111.39% | activity at 0.0244141 µM ([1]; 0.0244141 µM compound, n=6 MRK-740, n=3 MRK-740-NC, read-out: PRDM9-Activity %, Average): 111% | activity at 0.0244141 µM ([1]; 0.0244141 µM compound, read-out: PRDM9-Activity %, single experiments): 116% | PRDM9-Activity %, single experiments ([1]; 0.0488281 µM compound, 0.0488281 µM): 125.258% and 118.268% | activity at 0.0488281 µM ([1]; 0.0488281 µM compound, n=6 MRK-740, n=3 MRK-740-NC, read-out: PRDM9-Activity %, Average): 122% | activity at 0.0488281 µM ([1]; 0.0488281 µM compound, read-out: PRDM9-Activity %, single experiments): 121% | PRDM9-Activity %, single experiments ([1]; 0.0976562 µM compound, 0.0976562 µM): 107.407% and 111.807% | activity at 0.0976562 µM ([1]; 0.0976562 µM compound, n=6 MRK-740, n=3 MRK-740-NC, read-out: PRDM9-Activity %, Average): 109% | activity at 0.0976562 µM ([1]; 0.0976562 µM compound, read-out: PRDM9-Activity %, single experiments): 108% | PRDM9-Activity %, single experiments ([1]; 0.195312 µM compound, 0.195312 µM): 118.212% and 116.151% | activity at 0.195312 µM ([1]; 0.195312 µM compound, n=6 MRK-740, n=3 MRK-740-NC, read-out: PRDM9-Activity %, Average): 119% | activity at 0.195312 µM ([1]; 0.195312 µM compound, read-out: PRDM9-Activity %, single experiments): 122% | PRDM9-Activity %, single experiments ([1]; 0.390625 µM compound, 0.390625 µM): 107.574% and 115.149% | activity at 0.390625 µM ([1]; 0.390625 µM compound, n=6 MRK-740, n=3 MRK-740-NC, read-out: PRDM9-Activity %, Average): 111% | activity at 0.390625 µM ([1]; 0.390625 µM compound, read-out: PRDM9-Activity %, single experiments): 112% | PRDM9-Activity %, single experiments ([1]; 0.78125 µM compound, 0.78125 µM): 116.708% and 121.749% | activity at 0.78125 µM ([1]; 0.78125 µM compound, n=6 MRK-740, n=3 MRK-740-NC, read-out: PRDM9-Activity %, Average): 119% | activity at 0.78125 µM ([1]; 0.78125 µM compound, read-out: PRDM9-Activity %, single experiments): 120% | PRDM9-Activity %, single experiments ([1]; 1.5625 µM compound, 1.5625 µM): 114.731% and 115.595% | activity at 1.5625 µM ([1]; 1.5625 µM compound, n=6 MRK-740, n=3 MRK-740-NC, read-out: PRDM9-Activity %, Average): 116% | activity at 1.5625 µM ([1]; 1.5625 µM compound, read-out: PRDM9-Activity %, single experiments): 117% | PRDM9-Activity %, single experiments ([1]; 3.125 µM compound, 3.125 µM): 124.004% and 125.898% | activity at 3.125 µM ([1]; 3.125 µM compound, n=6 MRK-740, n=3 MRK-740-NC, read-out: PRDM9-Activity %, Average): 123% | activity at 3.125 µM ([1]; 3.125 µM compound, read-out: PRDM9-Activity %, single experiments): 120% | PRDM9-Activity %, single experiments ([1]; 6.25 µM compound, 6.25 µM): 105.486% and 104.623% | activity at 6.25 µM ([1]; 6.25 µM compound, n=6 MRK-740, n=3 MRK-740-NC, read-out: PRDM9-Activity %, Average): 105% | activity at 6.25 µM ([1]; 6.25 µM compound, read-out: PRDM9-Activity %, single experiments): 105% | PRDM9-Activity %, single experiments ([1]; 12.5 µM compound, 12.5 µM): 112.476% and 115.762% | activity at 12.5 µM ([1]; 12.5 µM compound, n=6 MRK-740, n=3 MRK-740-NC, read-out: PRDM9-Activity %, Average): 114% | activity at 12.5 µM ([1]; 12.5 µM compound, read-out: PRDM9-Activity %, single experiments): 114% | PRDM9-Activity %, single experiments ([1]; 25 µM compound, 25 µM): 98.6355% and 87.9699% | activity at 25 µM ([1]; 25 µM compound, n=6 MRK-740, n=3 MRK-740-NC, read-out: PRDM9-Activity %, Average): 94.3% | activity at 25 µM ([1]; 25 µM compound, read-out: PRDM9-Activity %, single experiments): 96.2% | PRDM9-Activity %, single experiments ([1]; 50 µM compound, 50 µM): 103.397% and 100.975% | activity at 50 µM ([1]; 50 µM compound, n=6 MRK-740, n=3 MRK-740-NC, read-out: PRDM9-Activity %, Average): 102% | activity at 50 µM ([1]; 50 µM compound, read-out: PRDM9-Activity %, single experiments): 101% | activity at 100 µM ([1]; n=3, read-out: PRDM9-Activity %, Average): 80.5% | activity at 100 µM ([1]; read-out: PRDM9-Activity %, single experiments): 82.7%

From article PMC6917776, “Discovery of a chemical probe for PRDM9” (Nature Communications, 2019)
